Consider 2 compounds from patent US20110008461A1 (priority 2008, published 2011).

Where two headings read alike, the source gives them in different places. Marks after values point to notes of the source that are not given here. Where only a bound is given, the exact number is not on record here.

One test deals with T1, avian liver mPEPCK (Gallus gallus, UniProt P21642).
T1 sequence (P21642 34-641): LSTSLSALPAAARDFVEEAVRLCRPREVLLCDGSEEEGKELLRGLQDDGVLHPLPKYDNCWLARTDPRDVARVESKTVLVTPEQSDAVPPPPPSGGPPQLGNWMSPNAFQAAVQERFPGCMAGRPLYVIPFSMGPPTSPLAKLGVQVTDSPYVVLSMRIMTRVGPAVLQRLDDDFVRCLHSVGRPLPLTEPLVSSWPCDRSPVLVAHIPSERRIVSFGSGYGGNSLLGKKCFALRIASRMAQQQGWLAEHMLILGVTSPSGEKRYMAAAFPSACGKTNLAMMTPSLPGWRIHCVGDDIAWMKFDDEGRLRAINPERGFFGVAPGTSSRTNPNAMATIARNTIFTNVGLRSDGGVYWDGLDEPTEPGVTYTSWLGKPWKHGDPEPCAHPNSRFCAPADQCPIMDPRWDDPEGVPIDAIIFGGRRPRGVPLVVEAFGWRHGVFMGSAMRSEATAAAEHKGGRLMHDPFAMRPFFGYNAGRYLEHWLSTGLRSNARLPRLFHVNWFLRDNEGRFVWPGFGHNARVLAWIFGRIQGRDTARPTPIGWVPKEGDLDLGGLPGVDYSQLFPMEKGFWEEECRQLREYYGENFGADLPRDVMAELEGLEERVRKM
Particulars: with respect to OAA; cited from earlier work.

Test [1] deals with pyrophosphate-dependent phosphofructokinase. The note with it: reported; cited from earlier work.
Test [2] concerns the target T2, Rat Liver Cytosolic Phosphoenolpyruvate Carboxykinase (Rattus norvegicus, UniProt P07379).
T2 sequence (P07379 1-622): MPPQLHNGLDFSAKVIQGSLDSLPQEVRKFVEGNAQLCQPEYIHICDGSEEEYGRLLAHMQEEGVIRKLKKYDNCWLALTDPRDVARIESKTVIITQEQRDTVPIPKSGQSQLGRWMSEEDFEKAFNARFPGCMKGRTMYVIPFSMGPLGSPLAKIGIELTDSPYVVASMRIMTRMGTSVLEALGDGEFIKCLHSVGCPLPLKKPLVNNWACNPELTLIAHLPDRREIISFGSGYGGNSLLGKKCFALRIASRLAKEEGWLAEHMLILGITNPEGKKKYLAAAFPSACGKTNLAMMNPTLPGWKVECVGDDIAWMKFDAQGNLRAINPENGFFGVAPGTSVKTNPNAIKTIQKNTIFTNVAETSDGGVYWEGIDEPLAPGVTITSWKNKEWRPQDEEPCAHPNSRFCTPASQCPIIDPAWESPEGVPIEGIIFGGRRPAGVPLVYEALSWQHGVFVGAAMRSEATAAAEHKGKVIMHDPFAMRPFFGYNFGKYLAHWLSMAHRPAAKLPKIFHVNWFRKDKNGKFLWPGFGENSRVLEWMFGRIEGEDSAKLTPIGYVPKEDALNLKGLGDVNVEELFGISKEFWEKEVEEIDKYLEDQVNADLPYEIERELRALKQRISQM
As to the kind of experiment: Continuous spectrophotometric PEPCK inhibition assay coupled to malate dehydrogenase (preliminary screen, inhibition patterns, Dixon plots).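 On all read-outs here: PEPCK activity followed continuously via malate dehydrogenase coupling, where OAA reduction consumes NADH, seen as falling absorbance at 340 nm, run at 35 °C.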 The note with it: for Pattern of Inhibition / Ki: PEP varied substrate; for Ki: noncompetitive.
Description: TES (pH 7.2), 7.5% glycerol (v:v), 0.2 mM EDTA.
The inhibition of PEPCK by various compounds was evaluated using a continuous spectrophotometric assay in which the coupling enzyme, malate dehydrogenase, reduced OAA to malate concomitant with the oxidation of NADH to NAD^+. The decrease in absorbance at 340 nm was monitored using a Beckman DU-70 Spectrophotometer equipped with a temperature controller. The standard 1-mL reaction mixture for the production of OAA contained 56 mM HEPES-KOH buffer (pH 7.0), 1 mM IDP (or alternatively, 0.1 mM GDP), 23 U malate dehydrogenase (1 unit of malate dehydrogenase is defined as 1 mole malate produced/min/mg protein), 0.25 mM NADH, 2.3 mM MnCl2, and 48 mM NaHCO3. […] All assay components except PEPCK were preincubated in the cuvette for 3 min at 35° C., the standard assay temperature.
The kinetic parameters for the inhibition studies were best fit to the equations for competitive inhibition (Eq. 1) and noncompetitive inhibition (Eq. 2), using the computer program and nomenclature of Cleland (Cleland, W. W. (1979) Statistical analysis of enzyme kinetic data. Methods Enzymol 63, 103-138).
v=VA/[K(1+1/Kis)+A] (Eq. 1)
v=VA/[K(1/Kis)+A(1+1/Kii)] (Eq. 2)
The parameters are defined as follows: v is the initial velocity, V is the maximal rate of product formation in the absence of inhibitor, A is the concentration of the variable substrate, K is the apparent Michaelis constant for the varied substrate, and Kis and Kii are the inhibition constants.

`O=C(O)C(=O)CS(=O)(=O)O` [β-sulfopyruvate]: on avian liver mPEPCK, the Pattern of Inhibition result was “competitive”.
Usually IC50 stands for the point on the concentration scale where inhibition reaches its midpoint. As a reminder, the Ki is the equilibrium dissociation constant of an inhibitor or competing ligand from its target. Regarding `O=P(O)(O)CP(=O)(O)O` [Compound 29, Methanediphosphonate], in test [1], the IC50 was more than 2000 µM. The “Pattern of Inhibition” value in test [2] is recorded as “noncompetitive”; in test [2] (listed as Methanediphosphonate (29)), “Noncompetitive”. The “% Activity Remaining” value in test [2] (analogue 1.5 mM, PEP 40 μM, preliminary screen, average of two PEPCK preparations) is reported as 4^f %. Moreover, the Ki in test [2] (read-out: Ki, intercept effect (Kii)) was determined as 90 ± 5 µM; in test [2] (read-out: Ki, slope effect (Kis), Cleland kinetics program), 32 ± 2 µM.
